# According to article PMC12833730, “Discovery of a First‐in‐Class Covalent Allosteric SHP1 Inhibitor with Immunotherapeutic Activity” (Angewandte Chemie (International Ed. in English), 2025):
# “Also recorded” adds a separate entry of the source.
# Columns and labels:
# [1] = tested on: SHP1 KO Jurkat T cells; test: TCR-LCK signaling in SHP1 KO cells; format: cell-based
# Experimental: Supernatants from lysed cells were reduced, treated with iodoacetamide to cap thiol residues, and digested by trypsin for bottom‐up proteomics analysis. […] LCK is the direct substrate of SHP1 and ERK1/2, and PLCγ is the downstream effector protein of LCK‐mediated TCR signaling. […] Statistical analyses were performed with Graphpad Prism software 10.4.2 through the one‐way ANOVA test using Turkey post‐hoc comparison. ****p < 0.0001 was considered significant.
# To further confirm M029 cellular target engagement, we investigated the effect of M029 on T cell function. SHP1 plays a negative role in T cells, and deletion of SHP1 in T cells lowers the activation threshold and enhances antitumor immunity.^[ [30], [31], [32], [33] ^] Mechanistically, SHP1 attenuates T cell receptor (TCR) signaling via dephosphorylation of the lymphocyte‐specific protein tyrosine kinase LCK.^[ [31], [84], [85], [86] ^] T cell activation leads to increased expression and secretion of interleukin 2 (IL‐2)^[ [87] ^] while the removal of SHP1 in T cells enhances IL‐2 production, cell proliferation, and cytolysis capacity.^[ [30], [32] ^] Accordingly, we sought to assess the impact of targeting SHP1 with M029 on TCR‐LCK signaling and T cell activation. […] M029 also dose‐dependently promoted IL‐2 production (Figure 4c). […]
# [2] = target: T1, CD45 (Homo sapiens, UniProt P08575); test: PTP panel IC50, 60-min preincubation; format: biochemical
# T1 construct: CD45, residues 620-1236; made in house; host or cells: E. coli BL21(DE3)
# T1 sequence (P08575 620-1236, species assumed): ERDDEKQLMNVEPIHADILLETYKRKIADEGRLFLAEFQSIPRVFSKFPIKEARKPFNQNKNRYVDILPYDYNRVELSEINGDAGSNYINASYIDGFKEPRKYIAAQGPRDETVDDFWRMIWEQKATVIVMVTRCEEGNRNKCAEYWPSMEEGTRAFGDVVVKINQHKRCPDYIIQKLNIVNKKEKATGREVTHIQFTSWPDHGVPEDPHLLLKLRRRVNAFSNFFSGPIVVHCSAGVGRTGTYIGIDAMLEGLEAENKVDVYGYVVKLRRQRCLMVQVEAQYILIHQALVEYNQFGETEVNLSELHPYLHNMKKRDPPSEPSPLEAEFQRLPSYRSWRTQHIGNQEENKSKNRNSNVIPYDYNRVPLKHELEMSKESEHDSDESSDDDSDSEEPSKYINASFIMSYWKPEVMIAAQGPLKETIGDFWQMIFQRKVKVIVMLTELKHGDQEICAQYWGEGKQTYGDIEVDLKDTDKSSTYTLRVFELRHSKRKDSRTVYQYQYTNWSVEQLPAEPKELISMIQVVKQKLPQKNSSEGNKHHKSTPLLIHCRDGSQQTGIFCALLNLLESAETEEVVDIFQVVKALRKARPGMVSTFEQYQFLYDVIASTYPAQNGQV
# Text: Building on the results from the SAR “by‐catalog” study, the following medicinal chemistry effort was prioritized on a systematic survey of the central phenyl scaffold, the sulfonamide linker, and the distal aryl moiety with the goal of a multiparameter optimization of potency and selectivity for SHP1 inhibition as well as drug‐like properties such as aqueous solubility and cell permeability. Additionally, given the crucial requirement for targeted covalent inhibitors to maintain tempered reactivity that enables selective target engagement and reduces cross‐reactivity to by‐standing nucleophiles in the cellular milieu,^[ [74], [75] ^] the medicinal chemistry campaign also sought to lower SHP1 covalent inhibitor reactivity with GSH and cytotoxicity. Careful assessment and evaluation of the SAR and other desirable drug‐like attributes of all synthesized molecules led to the identification of M029 (Figure 2a and Figure S2D, manuscript in preparation). […] To determine the selectivity of M029 for SHP1, we measured the IC50 value for M029‐mediated inhibition of a number of PTPs after a 60‐min preincubation. […] To assess potential direct interactions between SHP1 and M029, we utilized the thermal shift assay to measure the thermal stability of SHP1 in the presence of M029. […] To corroborate the covalent interaction between SHP1 and M029, a single SHP1‐M029 covalent adduct was observed by electrospray protein mass spectrometry when SHP1 was incubated with M029 (Figure 2e). […] This is in line with the expectation that SHP1 inactivation by M029 occurs through nucleophilic substitution of the chlorine from the chloroacetamide warhead.
# To further confirm the time-dependent inhibition and determine the IC50 of acquired hits, repurchased compounds from Enamine were serially diluted in a 96-well plate, followed by the addition of proteins at 200 nM. After 10-minute and 60-minute preincubation, 2 µL of the mixture was transferred into 100 µM 6,8-Difluoro-4-Methylumbelliferyl Phosphate (DiFMUP, Invitrogen, cat# D6567) at a final volume of 200 µL. The reaction was allowed to proceed for 5 minutes and quenched by the addition of 40 µl of a 160 µM solution of bpV(Phen) (Sigma-Aldrich, cat# SML0889). The fluorescence signal was measured using a CLARIOstar Plus Microplate Spectrophotometer (BMG Labtech) using excitation and emission wavelengths of 340 nm and 450 nm, respectively. Data were fitted using Prism GraphPad 10.1.1.
# [3] = tested on: MC38 tumors; test: MC38 tumors in nude mice; format: in vivo; conditions: 25 mg/kg
# Text: To further establish whether the inhibitory effects of M029 on tumor progression could be attributable to enhanced antitumor immune responses, we treated MC38 tumors in nude mice. […] To evaluate the importance of CD8^+ T and NK cells in M029‐induced antitumor activity, we induced CD8^+ T cell or NK cell depletion in the MC38 syngeneic model using anti‐CD8 or anti‐NK1.1 antibodies as described in Figure 6c. […] These findings are consistent with the known role of SHP1 in T cells and with our in vitro data that indicate M029 enhances T cell activation with no direct effect on tumor cells. […] These findings align with previous reports that activated CD8^+ T cells recruit NK cells to tumors through releasing cytokines and chemokines like IFN‐γ.^[ [92] ^] The observed changes in immune activity induced by M029, such as increased tumor infiltration of cytotoxic CD8^+ T cells, enhanced T cell cytotoxicity and effector function, as well as improved NK cell infiltration and activation, collectively contribute to the anticancer effects exerted by M029 treatment.
# Figure 6 Cytotoxic T‐cell activity is necessary for M029 antitumor activity. […] C57BL/6 mice were injected with anti‐CD8 or anti‐NK1.1 antibodies every 3–4 days for 8 days after tumor inoculation. […]
compound,measurement,setting,value
"N#Cc1ccsc1NS(=O)(=O)c1ccc(NC(=O)CCl)cc1 [M029, 2-Chloro-N-(4-(N-(3-cyanothiophen-2-yl)sulfamoyl)phenyl)acetamide]","LCK, PLCγ, and ERK1/2 phosphorylation in SHP1-deleted cells",[1],abolished; also recorded: unable to alter
same,IC50,[2],139 ± 38.5 µM
same,MC38 tumor growth in nude mice,[3],ineffective in inhibiting tumor growth; also recorded: no significant
